From article PMC4338433 (Scientific Reports, 2015) come the findings set out here.

In assay [1] the test system is AVR-14B GluCl R76N. The experiment in a line: Two electrode voltage-clamp of Xenopus laevis oocytes expressing R76N mutant AVR-14B GluCl. It counts as cell-based, Haemonchus contortus. The source says: (§1) All mutant cDNAs were generated from AVR-14B cDNA in the T7 plasmid vector[45] by conventional PCR with Pfu DNA polymerase (Thermo Scientific, Germany) and commercially generated mutagenesis primers (Eurofins MWG Operon, Ebersberg, Germany). All cDNAs were sequenced to confirm the presence of appropriate mutations (Eurofins MWG Operon) and linearized with XbaI (Thermo Scientific). cRNAs were synthesized with the mMESSAGE mMACHINE T7 Kit (Life Technologies GmbH, Darmstadt, Germany). X. laevis oocytes were used for two electrode voltage-clamp electrophysiology as previously described[48] and under approval of the Technical University of Darmstadt (Agreement V54-19c20/15 DA8/Anz. 20). After 2–5 days, oocytes were perfused with extracellular solution (115 mM NaCl, 1 mM KCl, 1.8 mM CaCl2, 10 mM HEPES, pH 7.4 with NaOH) alone or containing agonist, and currents were sampled at 1 kHz and filtered at 500 Hz with a Digidata 1322A digitizer, Geneclamp 500B amplifier and Clampex software (Molecular Devices, Sunnyvale, CA, USA). […] Non-linear regression parameters were compared to the respective WT value with Student's unpaired t tests (Prism4).
On the technique in general: In two-electrode clamp one electrode senses voltage and the other passes current.

Assay [2] has as its system AVR-14B GluCl A197E. The experiment in a line: Two electrode voltage-clamp of Xenopus laevis oocytes expressing A197E mutant AVR-14B GluCl. The class given is cell-based, Haemonchus contortus.
Description: as §1

Assay [3] has as its target H. contortus AVR-14B GluCl (wild-type) (Haemonchus contortus, UniProt O46124). The class given is cell-based. The following applies: Wild-type AVR-14B GluCl, mean ± s.e.m.
Description: as §1, with “20).” for “20). After 2–5 days, oocytes were perfused with extracellular solution (115 mM NaCl, 1 mM KCl, 1.8 mM CaCl2, 10 mM HEPES, pH 7.4 with NaOH) alone or containing agonist, and currents were sampled at 1 kHz and filtered at 500 Hz with a Digidata 1322A digitizer, Geneclamp 500B amplifier and Clampex software (Molecular Devices, Sunnyvale, CA, USA).”

Assay [4] deals with T1, AVR-14B GluCl Q141R (Haemonchus contortus, UniProt O46124, Q141R).
T1 sequence (O46124 31-438 Q141R): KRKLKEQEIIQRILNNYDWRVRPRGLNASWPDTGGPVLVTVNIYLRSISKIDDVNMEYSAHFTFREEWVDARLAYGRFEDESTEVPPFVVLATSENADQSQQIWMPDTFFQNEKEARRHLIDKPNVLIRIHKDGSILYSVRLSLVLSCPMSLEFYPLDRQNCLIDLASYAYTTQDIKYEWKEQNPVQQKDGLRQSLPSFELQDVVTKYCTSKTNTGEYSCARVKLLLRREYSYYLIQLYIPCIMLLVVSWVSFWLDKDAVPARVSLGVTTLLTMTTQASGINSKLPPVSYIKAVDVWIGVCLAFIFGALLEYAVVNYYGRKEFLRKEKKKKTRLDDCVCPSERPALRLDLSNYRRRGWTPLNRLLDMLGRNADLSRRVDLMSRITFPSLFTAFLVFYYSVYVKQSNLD
The conditions noted are these: Q141R mutant; mean ± s.e.m.
Description: as §1, with “20).” for “20). After 2–5 days, oocytes were perfused with extracellular solution (115 mM NaCl, 1 mM KCl, 1.8 mM CaCl2, 10 mM HEPES, pH 7.4 with NaOH) alone or containing agonist, and currents were sampled at 1 kHz and filtered at 500 Hz with a Digidata 1322A digitizer, Geneclamp 500B amplifier and Clampex software (Molecular Devices, Sunnyvale, CA, USA).”

The target of assay [5] is T2, AVR-14B GluCl Y248F (Haemonchus contortus, UniProt O46124, Y248F).
T2 sequence (O46124 31-438 Y248F): T1 sequence (O46124 31-438 Q141R)
The following applies: Y248F mutant, mean ± s.e.m.
Description: as §1, with “20).” for “20). After 2–5 days, oocytes were perfused with extracellular solution (115 mM NaCl, 1 mM KCl, 1.8 mM CaCl2, 10 mM HEPES, pH 7.4 with NaOH) alone or containing agonist, and currents were sampled at 1 kHz and filtered at 500 Hz with a Digidata 1322A digitizer, Geneclamp 500B amplifier and Clampex software (Molecular Devices, Sunnyvale, CA, USA).”

Assay [6] deals with T3, AVR-14B GluCl R76N/Q141R/K219A (RN/QR/KA) (Haemonchus contortus, UniProt O46124, K219A/Q141R/R76N).
T3 sequence (O46124 31-438 R76N/Q141R/K219A): T1 sequence (O46124 31-438 Q141R)
The conditions noted are these: R76N/Q141R/K219A triple-mutant; mean ± s.e.m.
Description: as §1, with “20).” for “20). After 2–5 days, oocytes were perfused with extracellular solution (115 mM NaCl, 1 mM KCl, 1.8 mM CaCl2, 10 mM HEPES, pH 7.4 with NaOH) alone or containing agonist, and currents were sampled at 1 kHz and filtered at 500 Hz with a Digidata 1322A digitizer, Geneclamp 500B amplifier and Clampex software (Molecular Devices, Sunnyvale, CA, USA).”

The target in assay [7] is T4, AVR-14B GluCl T245A (Haemonchus contortus, UniProt O46124, T245A).
T4 sequence (O46124 31-438 T245A): T1 sequence (O46124 31-438 Q141R)
The following applies: T245A mutant, mean ± s.e.m.
Description: as §1, with “20).” for “20). After 2–5 days, oocytes were perfused with extracellular solution (115 mM NaCl, 1 mM KCl, 1.8 mM CaCl2, 10 mM HEPES, pH 7.4 with NaOH) alone or containing agonist, and currents were sampled at 1 kHz and filtered at 500 Hz with a Digidata 1322A digitizer, Geneclamp 500B amplifier and Clampex software (Molecular Devices, Sunnyvale, CA, USA).”

The target of assay [8] is T5, AVR-14B GluCl K219A (Haemonchus contortus, UniProt O46124, K219A).
T5 sequence (O46124 31-438 K219A): T1 sequence (O46124 31-438 Q141R)
The conditions noted are these: K219A mutant, mean ± s.e.m.
Description: as §1, with “20).” for “20). After 2–5 days, oocytes were perfused with extracellular solution (115 mM NaCl, 1 mM KCl, 1.8 mM CaCl2, 10 mM HEPES, pH 7.4 with NaOH) alone or containing agonist, and currents were sampled at 1 kHz and filtered at 500 Hz with a Digidata 1322A digitizer, Geneclamp 500B amplifier and Clampex software (Molecular Devices, Sunnyvale, CA, USA).”

For assay [9], the target named is T6, AVR-14B GluCl S169A (Haemonchus contortus, UniProt O46124, S169A).
T6 sequence (O46124 31-438 S169A): T1 sequence (O46124 31-438 Q141R)
The following applies: S169A mutant, mean ± s.e.m.
Description: as §1, with “20).” for “20). After 2–5 days, oocytes were perfused with extracellular solution (115 mM NaCl, 1 mM KCl, 1.8 mM CaCl2, 10 mM HEPES, pH 7.4 with NaOH) alone or containing agonist, and currents were sampled at 1 kHz and filtered at 500 Hz with a Digidata 1322A digitizer, Geneclamp 500B amplifier and Clampex software (Molecular Devices, Sunnyvale, CA, USA).”

Assay [10] relates to AVR-14B GluCl R95A. The experiment in a line: Two electrode voltage-clamp of Xenopus laevis oocytes expressing R95A mutant AVR-14B GluCl. The class given is cell-based, Haemonchus contortus. The following applies: 1 μM ivermectin, mean ± s.e.m.
Description: as §1

Assay [11] has as its system AVR-14B GluCl Y199F. Kind of assay: Two electrode voltage-clamp of Xenopus laevis oocytes expressing Y199F mutant AVR-14B GluCl. The class given is cell-based, Haemonchus contortus. The conditions noted are these: 1 μM ivermectin, mean ± s.e.m.
Description: as §1

For `N[C@@H](CCC(=O)O)C(=O)O` [Glutamate], the Gating by glutamate entry in assay [1] (glutamate up to 100 mM) is on record as “not substantially gated”. For the same compound, the Glutamate-gated currents entry in assay [2] (effect of the A197E substitution) is given as “abolished”. The “Glutamate nH” value in assay [3] (Hill coefficient) is given as 1.7 ± 0.2; in [5] (Hill coefficient), 1.9 ± 0.2; in assay [7] (Hill coefficient), 2.0 ± 0.1; in [8] (Hill coefficient) it was 2.1 ± 0.4; in assay [9] (Hill coefficient), 1.8 ± 0.2. The “Glutamate Imax” value in [3] (maximum glutamate-gated current) was determined as 3.1 ± 0.3 μA; in assay [4] it was 1.1 ± 0.4 μA; in assay [5] it was 4.3 ± 0.8 μA; in assay [6], 2.3 ± 0.3 μA; in assay [7], 5.5 ± 0.8 μA; in assay [8] it was 3.3 ± 0.5 μA. Moreover, in assay [9], the “Glutamate Imax” value is on record as 4.3 ± 1.1 μA.
Consider Ivermectin, for which the “Ivermectin Imax” value in assay [1] (1 μM ivermectin, mean ± s.e.m.) is reported as 3.6 ± 1.0 μA; in assay [10] it was 4.8 ± 1.9 μA; in assay [2] (1 μM ivermectin, A197E mutant, mean ± s.e.m.), 2.4 ± 0.7 μA; in assay [11], 0.7 ± 0.2 μA; in assay [3] (1 μM ivermectin), 2.4 ± 0.4 μA.
